Measured values: article PMC3517155 (ChemMedChem, 2009)

Assays:
[1] = molecular target: T1, DAT (Rattus norvegicus, UniProt P23977); experiment: DAT binding, inhibition of [3H]WIN 35,428 binding in rat striatum
[2] = molecular target: T1, DAT; experiment: DAT uptake, inhibition of [3H]DA uptake in rat striatum; format: biochemical; details: for Selectivity ratio DAT uptake/DAT binding: ratio of Ki values
[3] = molecular target: SERT (Rattus norvegicus, UniProt P31652); experiment: SERT uptake, inhibition of [3H]5-HT uptake in rat cerebral cortex; format: biochemical; details: for Selectivity ratio SERT uptake/DAT uptake: ratio of Ki values
SERT, sequence (P31652 whole entry): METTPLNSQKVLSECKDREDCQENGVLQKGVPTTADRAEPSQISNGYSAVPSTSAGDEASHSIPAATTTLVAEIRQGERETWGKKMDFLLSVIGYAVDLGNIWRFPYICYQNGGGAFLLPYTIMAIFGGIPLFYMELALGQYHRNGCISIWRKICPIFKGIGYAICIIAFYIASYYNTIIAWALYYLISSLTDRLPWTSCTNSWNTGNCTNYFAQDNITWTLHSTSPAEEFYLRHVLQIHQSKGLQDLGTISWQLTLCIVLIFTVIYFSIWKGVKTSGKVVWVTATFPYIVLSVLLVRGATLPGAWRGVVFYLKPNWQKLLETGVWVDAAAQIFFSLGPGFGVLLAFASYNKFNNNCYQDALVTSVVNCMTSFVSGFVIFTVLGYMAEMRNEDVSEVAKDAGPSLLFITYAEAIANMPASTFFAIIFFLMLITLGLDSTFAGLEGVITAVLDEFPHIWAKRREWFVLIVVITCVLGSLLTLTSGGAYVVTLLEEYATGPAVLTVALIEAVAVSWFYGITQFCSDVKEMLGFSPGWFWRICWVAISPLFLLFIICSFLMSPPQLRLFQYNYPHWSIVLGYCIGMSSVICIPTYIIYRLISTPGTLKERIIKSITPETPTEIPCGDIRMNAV

[4] = tested on: NET; experiment: NET uptake, inhibition of [3H]NE uptake in rat hippocampus; format: biochemical; details: ratio of Ki values
[5] = tested on: Swiss-Webster mice; experiment: Locomotor activity in mice; details: i.p., 1 mg/kg
[6] = tested on: rats trained to discriminate 10 mg/kg cocaine from saline; experiment: Cocaine drug discrimination in rats; details: at 10 and 30 mg/kg i.p.

T1 sequence (P23977 whole entry): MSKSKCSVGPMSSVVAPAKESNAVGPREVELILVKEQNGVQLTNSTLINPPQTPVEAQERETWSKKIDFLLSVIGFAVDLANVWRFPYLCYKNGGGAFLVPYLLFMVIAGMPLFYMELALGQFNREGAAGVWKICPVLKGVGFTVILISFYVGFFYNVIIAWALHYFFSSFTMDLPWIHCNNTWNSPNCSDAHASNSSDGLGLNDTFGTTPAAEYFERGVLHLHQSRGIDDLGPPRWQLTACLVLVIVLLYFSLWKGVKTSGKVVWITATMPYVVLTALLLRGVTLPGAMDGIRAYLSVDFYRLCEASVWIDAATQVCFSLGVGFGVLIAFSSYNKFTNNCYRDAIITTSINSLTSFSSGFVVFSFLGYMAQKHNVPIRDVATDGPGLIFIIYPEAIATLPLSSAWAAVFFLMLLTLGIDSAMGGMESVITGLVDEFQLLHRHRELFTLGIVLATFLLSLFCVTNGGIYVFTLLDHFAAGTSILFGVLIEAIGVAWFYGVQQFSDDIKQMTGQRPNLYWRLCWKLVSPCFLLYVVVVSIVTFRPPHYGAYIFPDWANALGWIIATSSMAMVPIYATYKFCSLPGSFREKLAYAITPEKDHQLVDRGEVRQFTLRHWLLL

Row | SMILES | Ki [1] [nM] | Ki [2] [nM] | Selectivity ratio DAT uptake/DAT binding [2] | Selectivity ratio SERT uptake/DAT uptake [3] | Selectivity ratio NET uptake/DAT uptake [4] | Ki [3] [nM] | time of peak effect on distance traveled [5] [min] | percentage of cocaine-lever responding [6] [%]
1 | O[C@@H]1CN(C[C@H](O)c2ccccc2)CC[C@H]1CCOC(c1ccccc1)c1ccccc1 [9a′, (3S,4S)-4-(2-(Benzhydryloxy)ethyl)-1-((R)-2-hydroxy-2-phenylethyl)piperidin-3-ol] | 40.1 ± 19.2 | 18.4 ± 9.5 | 0.46 | 23 | 1.5 | – | – | –
2 | O[C@@H]1CN(C[C@H](O)c2ccc(F)cc2)CC[C@H]1CCOC(c1ccccc1)c1ccccc1 [9c′, (3S,4S)-4-(2-(benzhydryloxy)ethyl)-1-((R)-2-(4-fluorophenyl)-2-hydroxyethyl)piperidin-3-ol] | – | 2.44 ± 0.37 | – | 160 | 10 | 402 ± 67 | – | –
3 | O[C@H](CN1CC[C@H](CCOC(c2ccccc2)c2ccccc2)[C@@H](O)C1)c1ccc(F)cc1 [Compound 9d, (3R,4R)-4-(2-(Benzhydryloxy)ethyl)-1-((S)-2-(4-fluorophenyl)-2-hydroxyethyl)piperidin-3-ol] | 2.65 ± 0.99 | 1.55 ± 0.27 | 0.59 | 170 | 9.1 | 259 ± 36 | – | –
4 | O[C@@H](CN1CC[C@H](CCOC(c2ccccc2)c2ccccc2)[C@@H](O)C1)c1ccccc1 [Compound 9a, (3R,4R)-4-(2-(Benzhydryloxy)ethyl)-1-((R)-2-hydroxy-2-phenylethyl)-piperidin-3-ol] | 6.76 ± 1.75 | 6.23 ± 2.38 | 0.92 | 73 | 1.2 | 456 ± 102 | 20 to 30 | –
5 | O[C@H](CN1CC[C@@H](CCOC(c2ccccc2)c2ccccc2)[C@H](O)C1)c1ccccc1 [9b′, (3S,4S)-4-(2-(Benzhydryloxy)ethyl)-1-((S)-2-hydroxy-2-phenylethyl)piperidin-3-ol] | 0.486 ± 0.065 | 1.06 ± 0.42 | 2.2 | 220 | 110 | 231 ± 49 | – | –
6 | COC(=O)[C@H]1[C@@H](OC(=O)c2ccccc2)C[C@@H]2CC[C@H]1N2C [cocaine] | – | – | – | – | – | – | – | ≥ 80
7 | O[C@H](CN1CC[C@@H](CCOC(c2ccccc2)c2ccccc2)[C@H](O)C1)c1ccc(F)cc1 [9d′, (3S,4S)-4-(2-(Benzhydryloxy)ethyl)-1-((S)-2-(4-fluorophenyl)-2-hydroxyethyl)piperidin-3-ol] | 2.59 ± 0.66 | 2.97 ± 0.72 | 1.2 | 600 | 7.0 | 1790 | – | –
8 | O[C@H](CN1CC[C@H](CCOC(c2ccccc2)c2ccccc2)[C@@H](O)C1)c1ccccc1 [Compound 9b, (3R,4R)-4-(2-(Benzhydryloxy)ethyl)-1-((S)-2-hydroxy-2-phenylethyl)piperidin-3-ol] | 2.29 ± 0.85 | 4.69 ± 2.06 | 2.0 | 33 | 17 | 155 ± 26 | – | –
9 | O[C@@H](CN1CC[C@H](CCOC(c2ccccc2)c2ccccc2)[C@@H](O)C1)c1ccc(F)cc1 [Compound 9c, (3R,4R)-4-(2-(Benzhydryloxy)ethyl)-1-((R)-2-(4-fluorophenyl)-2-hydroxyethyl)piperidin-3-ol] | 2.17 ± 0.67 | 4.04 ± 1.22 | 2.0 | 260 | 5.4 | 1050 | – | –
